What was measured:
[1] = molecular target: T1, ATP-dependent translocase ABCB1 (Homo sapiens, UniProt P08183); assay: Inhibition of human Pgp mediated [3H]vinblastine transport in human Caco-2 cells; assay type: cell-based
[2] = Apparent permeability from basolateral to apical side of human Caco-2 cell membrane; assay type: ADME, cell-based
[3] = Apparent permeability from apical to basolateral side of human Caco-2 cell membrane; assay type: ADME, cell-based
[4] = Ratio of apparent permeability from basolateral to apical over apical to basolateral side of human Caco-2 cell membrane
[5] = molecular target: T1, ATP-dependent translocase ABCB1; assay: Activation of human Pgp ATPase in human Caco-2 cells at 100 uM; assay type: cell-based; conditions: caco-2, 100 µM
[6] = system: MCF7; assay: Cytotoxic activity against adriamycin resistant human MCF7 cells assessed as LDH release at 100 uM after 24 hrs; assay type: functional
[7] = molecular target: T1, ATP-dependent translocase ABCB1; assay: Inhibition of human Pgp in adriamycin resistant MCF7 cells assessed as fold increase in accumulation of doxorubicin at 20 uM relative to control; assay type: cell-based; conditions: mcf7, 20 µM
[8] = system: MCF7; assay: Antiproliferative activity against adriamycin resistant human MCF7 cells assessed by MTT assay at 100 uM after 48 hrs

T1 sequence (P08183 whole entry): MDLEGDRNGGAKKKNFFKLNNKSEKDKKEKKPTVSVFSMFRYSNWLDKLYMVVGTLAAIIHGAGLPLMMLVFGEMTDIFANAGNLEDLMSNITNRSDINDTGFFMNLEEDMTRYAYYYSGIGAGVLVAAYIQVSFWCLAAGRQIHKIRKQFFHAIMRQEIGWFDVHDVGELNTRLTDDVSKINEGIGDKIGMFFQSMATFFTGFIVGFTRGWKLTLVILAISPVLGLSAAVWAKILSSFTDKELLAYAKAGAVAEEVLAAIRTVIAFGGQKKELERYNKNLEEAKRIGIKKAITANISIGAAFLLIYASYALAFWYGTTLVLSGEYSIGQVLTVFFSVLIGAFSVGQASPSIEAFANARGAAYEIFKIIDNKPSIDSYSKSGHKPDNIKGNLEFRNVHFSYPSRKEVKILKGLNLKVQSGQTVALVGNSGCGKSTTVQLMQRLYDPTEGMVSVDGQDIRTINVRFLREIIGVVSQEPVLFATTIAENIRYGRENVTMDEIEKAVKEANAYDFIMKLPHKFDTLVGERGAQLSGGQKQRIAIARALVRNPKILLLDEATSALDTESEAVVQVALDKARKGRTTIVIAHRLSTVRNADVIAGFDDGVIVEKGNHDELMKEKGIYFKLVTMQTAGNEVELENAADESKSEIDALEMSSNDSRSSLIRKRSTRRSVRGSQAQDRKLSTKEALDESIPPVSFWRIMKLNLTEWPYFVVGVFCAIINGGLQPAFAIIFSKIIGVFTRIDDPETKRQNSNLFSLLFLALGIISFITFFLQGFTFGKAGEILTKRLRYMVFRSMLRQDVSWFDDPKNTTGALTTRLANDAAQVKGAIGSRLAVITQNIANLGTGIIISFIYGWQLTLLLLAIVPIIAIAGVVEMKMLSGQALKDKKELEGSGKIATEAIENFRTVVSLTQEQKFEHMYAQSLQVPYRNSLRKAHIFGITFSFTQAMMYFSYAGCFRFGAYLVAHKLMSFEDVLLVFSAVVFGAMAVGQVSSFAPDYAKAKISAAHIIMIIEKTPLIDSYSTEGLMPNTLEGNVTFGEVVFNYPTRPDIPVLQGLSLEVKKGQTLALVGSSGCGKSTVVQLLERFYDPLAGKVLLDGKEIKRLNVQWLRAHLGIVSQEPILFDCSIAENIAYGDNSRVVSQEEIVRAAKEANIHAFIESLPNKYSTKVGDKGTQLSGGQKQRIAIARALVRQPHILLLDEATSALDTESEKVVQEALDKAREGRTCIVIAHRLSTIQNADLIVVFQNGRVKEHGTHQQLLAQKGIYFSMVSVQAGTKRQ

Row | Structure (SMILES) | EC50 [1] [µM] | Papp B→A [2] [×10⁻⁶ cm/s] | Papp A→B [3] [×10⁻⁶ cm/s] | efflux ratio [4] | Activity [5] [%] | Activity [6] [%] | Activity [7] | Activity [8] [%]
1 | COc1ccc2c(c1)CCC=C2CCCN1CCc2cc(OC)c(OC)cc2C1 | 83.7 | 151 | 40.7 | 3.7 |  |  |  | 
2 | COc1cc2c(cc1OC)CN(CCC=C1CCCCC1)CC2 | 15.2 | 240 | 77.4 | 3.1 |  |  |  | 
3 | COc1cc2c(cc1OC)CN(CCCC1CCCc3cc(OC)c(OC)cc31)CC2 (stereo not drawn) | 17.9 | 440 | 86.8 | 5.1 | 62 |  |  | 
4 | COc1ccc2c(c1)/C(=C/CCN1CCc3cc(OC)c(OC)cc3C1)CCC2 | 4.86 | 657 | 166 | 3.9 |  | <20 | 4.1 | <20
5 | COc1cc2c(cc1OC)CN(CCCC1CCCc3c(OC)cccc31)CC2 (stereo not drawn) | 6.35 | 104 | 5.6 | 18 | 70 | <20 | 4.8 | <20
6 | COc1cc2c(cc1OC)CN(CCCC1=CCCc3cc(OC)c(OC)cc31)CC2 | 31.6 | 103 | 67.2 | 1.5 | 15 |  |  | 
7 | COc1cccc2c1CCCC2CCCN1CCN(C2CCCCC2)CC1 (stereo not drawn) | 0.55 | 436 | 250 | 1.7 |  |  |  | 
8 | COc1ccc2c(c1)CCCC2CCCN1CCc2cc(OC)c(OC)cc2C1 (stereo not drawn) | 8.15 | 351 | 82.8 | 4.2 | 27 |  |  | 
9 | COc1ccc2c(c1)C(CCCN1CCc3cc(OC)c(OC)cc3C1)=CCC2 | 35.5 | 332 | 61 | 5.4 | 20 |  |  | 
10 | COc1cc2c(cc1OC)CN(CC/C=C1\CCCc3c(OC)cccc31)CC2 | 1.64 | 38.6 | 23.7 | 1.6 |  | <20 | 5.7 | 25
11 | COc1cc2c(cc1OC)CN(CCCC1=CCCc3c(OC)cccc31)CC2 | 15 | 114 | 16 | 7.1 | 30 |  |  | 
12 | COc1ccc2c(c1)C(CCCN1CCc3cc(OC)c(OC)cc3C1)CCC2 (stereo not drawn) | 10.2 | 170 | 46 | 3.7 | 15 |  |  | 
13 | COc1cccc2c1CCC/C2=C\CCN1CCCCC1 | 8.2 | 256 | 58.4 | 4.4 |  |  |  | 

Source: ChEMBL document CHEMBL1143871, “Small P-gp modulating molecules: SAR studies on tetrahydroisoquinoline derivatives” (Bioorg Med Chem, 2008)
